# PubChem BioAssay (NCI)
# Where “and” joins values, the source holds several entries; their conditions need not be identical. Equal entries are not always repeated.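 Where inhibition never reached the appropriate level, the endpoint shown equals the highest concentration tested. Otherwise, values were interpolated linearly from a five-concentration, 48-hour dose response in 96-well plates. Here, GI50 denotes the concentration required for 50% inhibition of growth. Definition used: TGI = concentration required for complete inhibition of growth.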
# Tests used:
# Assay in all cases: NCI anticancer screen, dose series, 48 h
# HCT-116 colon = test system: HCT-116 colon
# A549 NSCLC = test system: A549 NSCLC
# SF-539 CNS = test system: SF-539 CNS
# ACHN renal = test system: ACHN renal
# EKVX NSCLC = test system: EKVX NSCLC
# NCI-H522 lung = test system: NCI-H522 lung
# UACC-62 melanoma = test system: UACC-62 melanoma
# RXF 393 renal = test system: RXF 393 renal
# MOLT-4 leukemia = test system: MOLT-4 leukemia
# SK-MEL-2 melanoma = test system: SK-MEL-2 melanoma
Structure (SMILES),TGI (HCT-116 colon) [µM],TGI (A549 NSCLC),TGI (SF-539 CNS),TGI (ACHN renal) [µM],TGI (EKVX NSCLC) [µM],TGI (NCI-H522 lung),TGI (UACC-62 melanoma),TGI (RXF 393 renal),TGI (MOLT-4 leukemia),TGI (SK-MEL-2 melanoma),GI50 (HCT-116 colon) [µM],GI50 (A549 NSCLC) [µM],GI50 (SF-539 CNS) [µM],GI50 (ACHN renal) [µM],GI50 (EKVX NSCLC) [µM],GI50 (NCI-H522 lung) [µM],GI50 (UACC-62 melanoma) [µM],GI50 (RXF 393 renal) [µM],GI50 (MOLT-4 leukemia) [µM],GI50 (SK-MEL-2 melanoma) [µM]
CCCCCCCCCCCCCCCC(=O)OCC1OC(n2ccc(N)nc2=O)C(O)C1O (stereo unspecified),> 100,> 100 µM,> 100 µM,> 44.2,> 100,> 100 µM,> 100 µM,> 100 µM,44.8 µM,> 100 µM,,,,,,,,,,
CN(C)c1ccc(Sc2ccc3nc(N)nc(N)c3c2)cc1,1.64,12 µM,10.3 µM,7.39,23.5,11.7 µM,5.78 µM,11.3 µM,16 µM,16.1 µM,0.305,0.139,0.985,0.52,2.27,0.934,0.519,1.06,0.635,3.84
O=C(Nc1ccccc1)Nc1ccccc1CNc1nc(Nc2ccc(OCCN3CCCC3)cc2)ncc1Cl,7.12,21.7 µM,6.23 µM,6.83,15.4,18.8 µM,10.9 µM,5.84 µM,20 µM,13.5 µM,1.75,5.7,1.72,1.85,7.02,5.3,3.83,1.44,2.96,4.74
C#Cc1cccc(Nc2ncnc3ccc(-c4cncc(NS(C)(=O)=O)c4)cc23)c1,3.29,14.9 µM,4.96 µM,49.6,4.6,3.28 µM,5.69 µM,4.84 µM,4.45 µM,2.2 µM,1.45,3.63,1.46,0.979,1.12,1.06,1.66,1.68,1.41,0.845
CCSc1nc(N)c2cnn(C)c2n1,> 100,> 100 µM,> 100 µM,> 100,> 100,> 100 µM,69.6 µM,> 100 µM,> 100 µM,> 100 µM,28.9,52.6,36.1,44.4,56.7,62.9,29.5,36.2,59.9,> 100
COc1cc(CC(=O)c2ccc3c(c2)OCO3)cc(OC)c1OC,> 100,> 100 µM,> 100 µM,> 100,> 100,> 100 µM,> 100 µM,> 100 µM,> 100 µM,> 100 µM,,,,,,,,,,
CCOC(=O)Cc1csc(NC(=O)C(OC(=O)c2ccc(N)cc2)c2ccccc2)n1 (stereo unspecified),> 100,> 100 µM,87.4 µM,> 100,> 100,> 100 µM,65.6 µM,> 100 µM,> 100 µM,> 100 µM,30.8,51.5,30.6,44.9,> 100,43,25.9,66.4,24.8,40.2
Cn1c(COC(=O)NCCN2CCOCC2)nc2c(N3CCOCC3)nc(-c3ccccc3)nc21,1.7,3.73 µM,2.68 µM,2.23,3.36,2.02 µM,2.81 µM,2.22 µM,5.96 µM,3.2 µM,0.397,1.39,1.35,0.936,1.48,0.424,1.36,0.797,0.972,1.65
CCNC(=O)Oc1ccc(/C(=C(\C)c2ccc(Cl)cc2)c2ccc(OCCN3CCCCC3)cc2)cc1,3.22,22.4 µM,3.59 µM,16.7,21.9,29.9 µM,6.01 µM,8.77 µM,10.6 µM,19.2 µM,1.69,8.47,1.81,4.78,6.14,14.1,2.5,2.19,3.27,5.49
CC[C@@]1(OC(=O)CN(C)C)C(=O)OCc2c1cc1n(c2=O)Cc2cc3ccccc3nc2-1,,4.33 µM and 7.12 µM,0.0572 µM and 0.315 µM,0.273,,3.45 µM and 1.68 µM,0.116 µM and 0.132 µM,0.643 µM and 0.43 µM,0.318 µM and 0.344 µM,3.47 µM and 5.34 µM,0.0391,0.042,< 0.0167,,1.88,0.0396,< 0.012,0.0665,,1.09
O=c1c2cc(F)ccc2sc2c(NCCCN3CCCC3)nc3ccccc3c12,3.19,3.83 µM,3.19 µM,3.18,8.48,3.96 µM,3.77 µM,8.67 µM,4.22 µM,4.77 µM,1.63,1.87,1.69,1.69,2.58,1.97,1.87,2.33,1.97,2.19
C[C@H](NC(=O)CCC(F)(F)F)C(=O)N[C@@H]1C(=O)N(CCO)c2ncccc2-c2ccccc21,> 100,> 100 µM,> 100 µM,> 100,> 100,> 100 µM,> 100 µM,> 100 µM,> 100 µM,> 100 µM,> 100,> 100,> 100,> 100,> 100,> 100,> 100,> 100,> 100,> 100
COc1cc(C(=O)N/N=C/c2cccc([N+](=O)[O-])c2)cc(OC)c1OC,> 100,> 100 µM,16.9 µM,> 100,> 100,5.74 µM,> 100 µM,34.3 µM,> 100 µM,> 100 µM,4.09,8.02,3.28,26.7,18.7,2.45,6.31,6.9,3.98,4.16
